Test results as given in USRE37534E1, “Pharmaceutical compositions” (BTG International Limited, priority 1982, dated 2002).
Blank lines part the entries; values can stand above or below the compound they belong to.

How the values were obtained:
[1] = Ksol (ability to solubilise iron(III) hydroxide); assay type: physicochemical
Text: (§1) In order to solubilise iron(III) hydroxide, log Ksol must be greater than 0. The value of Ksol for maltol is 0.8 and this is also sufficiently large to prevent appreciable competition from phytate, phosphate, thiols and other potential ligands likely to occur in the intestinal lumen.

rat jejunal sac = test: Permeation of everted rat jejunal sac by iron complexes; assay type: in vitro ADME; conditions: for Relative iron uptake, 15 minutes / Relative iron uptake, 60 minutes: relative to ferric chloride as 1
Text: Rats (male Sprague Dawley, 60 g) were killed and the jejunum removed, everted and cut into three segments (4 cm length). […] The contents of the sac were counted for ^59Fe and measured spectrophotometrically. […] The procedure described above was used to compare the uptake of iron from buffer containing differing molar proportions of maltol:iron.

[2] = Iron take-up in human subjects by whole body counting; assay type: in vivo; conditions: for level of take-up of iron by whole body counting: normal subject
Experimental: Capsules containing 3:1 iron(III) maltol, […] were prepared according to the procedure of Example 7^(1) with the modification that at 3:1 molar ratio of maltol:iron was used (no free maltol therefore being present in the capsules) and that a proportion of the ferric chloride used in the preparation of the iron maltol was radiolabelled as ^59Fe. The capsules each contained 10 mg of iron, this amount being labelled with 1 microcurie of ^59Fe, and were subjected to a single coating procedure.
The test involved two normal subjects, i.e. not suffering from iron deficiency, one of whom took a 10 mg dose of iron (one capsule) and the other whom took a 20 mg does of iron (two capsules). The capsule or capsules were taken after fasting overnight and fasting was then continued for a further 2 hours. The take-up of iron by the subjects was followed by means of whole body counting, using a calibrated body counter, reading being taken 4 to 8 hours after ingestion of the capsules to establish a base level and then after 7 and 14 days. Excretion of iron by the subjects was followed through the counting, in a large volume counter calibrated for iron, of daily urine samples over 3 days and daily stool samples over 10 days.

[3] = Partition coefficient Kpart n-octanol / Tris hydrochloride; assay type: physicochemical; conditions: pH 7.4
Experimental: An indication of the properties of a compound in this respect is provided by the value of the partition coefficient (Kpart) obtained on partition between n-octanol and Tris hydrochloride (20 mM, pH 7.4; Tris representing 2-amino-2-hydroxymethylpropane 1,3-diol) at 20° C. and expressed as the ratio (concentration of compound in organic phase)/(concentration of compound in aqueous phase).
The partition coefficient Kpart (concentration in n-octanol/concentration in aqueous phase) between n-octanol and Tris hydrochloride (20 mM, pH 7.4) of maltol and of its 3:1 iron complex is measured at 10^−4 M by spectrophotometry. Acid washed glassware is used throughout and, following mixing for 1 minute, the aqueous/n-octanol mixture is […] at 1000 g for 30 seconds. The two resulting phases are separated for a concentration determination by spectrophotometry on each. For maltol, the range 220-340 nm is used for the concentration determination whilst for the complex the range 340-640 nm is used.

[4] = Affinity / stability constant of ligand for iron(III); assay type: physicochemical
Text: as §1

human erythrocytes = test: Permeation of iron complexes into human erythrocytes (59Fe distribution ratio); assay type: cell-based; conditions: 37° C.; for Distribution ratio (concentration in erythrocytes/concentration in medium): 1 hour, pH 7.4
Experimental: Following this period of incubation an aliquot of the erythrocyte/medium mixture was placed above a layer of silicone oil (ρ=1.06) and the erythrocytes separated by centrifugation through the oil. The ^59Fe levels associated with the erythrocytes and the incubation medium were then counted and presented as a distribution ratio (concentration in erythrocytes/concentration in medium).

[5] = In vivo 59Fe uptake after administration into the duodenum of the rat; conditions: 100 μg Fe into duodenum; for introduction of iron via the rat intestine (59Fe in organs), comparison: 1-6 hours, FIGS. 1-4
Experimental: Groups of rats (300-350 g) were anaesthetised with nembutal (0.25 ml) and then with ether. […] The abdominal well was then closed with a suture. […] In the case of the data for blood and sternum (bone marrow) the counts given are cpm/ml and cpm/g respectively, whilst in all other cases they are the total cpm counts.

[6] = In vivo 59Fe blood kinetics and tissue distribution in the cat, intravenous; conditions: for Net ^59Fe content (cpm/g) / Net total ^59Fe content (cpm): 2 μCi given, figures adjusted to 2.2×10^6 cpm
Experimental: Body temperature was monitored with a rectal thermometer.
The iron maltol complex (100 μg Fe) alone (3:1 molar ratio of maltol:iron) and together with a large excess of maltol (40:1 molar ratio of maltol:iron) was injected intravenously in separate experiments and 0.25 ml samples of blood were taken in intervals. The apparent volume of distribution of the compound was calculated by extrapolation of the log-linear blood concentration curve to zero.
The amount of ^59Fe administration in this experiment was 4 μCi or 2.2×10^6 cpm.

haemoglobin = haemoglobin (Homo sapiens, UniProt P68871+P69905); test: Binding of 59Fe-labelled complex to haemoglobin (gel permeation column); conditions: 59Fe-labelled complex 1 mM, NaCl 130 mM, pH 7.4
Experimental: (§2) The ability of the iron complex of maltol to bind to haemoglobin is investigated by studying the elution profile of a ^59Fe label when a mixture of haemoglobin and the ^59Fe-labeled complex (at 1 mM concentration) in NaCl (130 mM) buffered to pH 7.4 by Tris hydrochloride is applied to a PH-10 column (Sephadex G-10 gel permeation column—Pharmacia).

[7] = biological target: bovine serum albmen (BSA) (Bos taurus, UniProt P02769); test: Binding of complex to BSA (gel permeation column); conditions: as haemoglobin procedure, pH 7.4
Experimental: as §2
The ability of the iron complex of maltol to bind to bovine serum albmen (BSA) is investigated through a similar procedure in which the complex is applied to a column with BSA rather than haemoglobin.

[8] = In vivo 59Fe blood level and tissue distribution in the cat, per duodenum; conditions: 2.65×10^6 cpm administered
Text: (§3) In each animal the trachea was cannulated to maintain a clear airway and to allow positive pressure artificial respiration if necessary. The left femoral vien was cannulated for the intravenous administration of drugs and physiological saline solution. Arterial blood pressure was monitored by a Washington pressure transducer through a cannula inserted into the femoral artery of the right hind leg. Arterial blood samples were taken at appropriate intervals from a short cannula inserted into an external carotid artery. Body temperature was monitored with a rectal thermometer. Each animal was given heparin (1000 iu/kg) as anticoagulant and additional small amounts of pentobarbitone sodium if needed to maintain a satisfactory level of anaesthesia.
(§4) If those animals where the iron compounds were to be administered into the duodenum, a mid-line incision was made in the abdomen to reveal the intestines. A cannula was then inserted through a small cut such that its tip rested approximately 5 cm below the opening of the bile duct. The cannula was then sutured in place and the abdominal wall closed with stitches.
(§5) The iron maltol complex (100 μg Fe) was also administered to the duodenum of the cat in the presence of a 40 fold excess of maltol followed by 5 ml of 150 ml tris hydrochloride buffer (pH 7.4).

[9] = in vivo
Text: as §3, §4, §5

haemoglobin, sequence (P69905 2-142 limits assumed): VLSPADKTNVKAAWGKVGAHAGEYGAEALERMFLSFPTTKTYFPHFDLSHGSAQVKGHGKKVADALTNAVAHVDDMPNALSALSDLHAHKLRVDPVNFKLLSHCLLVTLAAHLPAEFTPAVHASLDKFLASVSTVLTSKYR
haemoglobin, sequence (P68871 2-147 limits assumed): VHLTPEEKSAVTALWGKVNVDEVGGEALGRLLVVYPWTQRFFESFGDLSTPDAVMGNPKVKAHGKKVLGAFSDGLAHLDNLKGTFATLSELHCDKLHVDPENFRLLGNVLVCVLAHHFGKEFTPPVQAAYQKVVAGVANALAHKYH
bovine serum albmen (BSA), sequence (P02769 25-607): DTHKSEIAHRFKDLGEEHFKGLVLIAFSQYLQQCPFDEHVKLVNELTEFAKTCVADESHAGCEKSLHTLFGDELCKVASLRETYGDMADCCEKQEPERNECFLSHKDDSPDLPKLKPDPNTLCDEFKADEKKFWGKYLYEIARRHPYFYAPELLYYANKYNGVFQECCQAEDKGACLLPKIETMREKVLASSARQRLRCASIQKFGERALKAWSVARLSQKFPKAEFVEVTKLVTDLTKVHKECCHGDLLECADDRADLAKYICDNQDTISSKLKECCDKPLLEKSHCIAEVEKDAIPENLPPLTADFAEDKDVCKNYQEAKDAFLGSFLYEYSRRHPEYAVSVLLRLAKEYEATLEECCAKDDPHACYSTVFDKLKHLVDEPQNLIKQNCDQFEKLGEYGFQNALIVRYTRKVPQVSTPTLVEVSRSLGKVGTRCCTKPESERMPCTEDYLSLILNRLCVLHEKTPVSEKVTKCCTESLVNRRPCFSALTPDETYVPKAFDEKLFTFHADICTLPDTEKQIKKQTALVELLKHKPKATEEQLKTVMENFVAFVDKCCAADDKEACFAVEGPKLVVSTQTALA

Relative iron uptake, 15 minutes (rat jejunal sac): 2.4 | Relative iron uptake, 60 minutes (rat jejunal sac): 1.4 | level of take-up of iron by whole body counting ([2]; 10 mg dose, at 7 days): 13% | level of take-up of iron by whole body counting ([2]; 20 mg dose, at 7 days): 6%
Compound: O=S(=O)([O-])[O-].[Fe+2] [Fe^II sulphate]

Relative iron uptake, 15 minutes (rat jejunal sac): 1.6 | Relative iron uptake, 60 minutes (rat jejunal sac): 0.8 | Distribution ratio (concentration in erythrocytes/concentration in medium) (human erythrocytes; 1 mM): 0.08
Compound: O=C([O-])[C@H](O)[C@@H](O)[C@H](O)[C@H](O)CO.O=C([O-])[C@H](O)[C@@H](O)[C@H](O)[C@H](O)CO.[Fe+2] [Fe^II gluconate]
introduction of iron via the rat intestine (59Fe in organs), comparison [5]: more effective than the sulphate or the EDTA complex

59Fe directed to the bone marrow (bulk, inferred) ([6]; in vivo, iv): approximately 90% | dose located in combined tissue of heart, liver and spleen ([6]; in vivo, iv): approximately 10% | dose located in the urine ([6]; in vivo, iv): less than 0.2% | introduction of iron via the rat intestine (59Fe in organs), comparison ([5]; listed as maltol complex): more efficient than iron(III) EDTA | introduction of iron via the rat intestine (59Fe in organs), comparison ([5]; listed as neutral 3:1 maltol:iron(III) complex): markedly superior to iron(II) sulphate | concentration dependence of uptake (rat jejunal sac; 0.5 to 10 mM, uptake increased linearly): does not show saturation kinetics | Iron uptake (n mole) (rat jejunal sac; iron transferred into serosal contents of sac, basal uptake subtracted, by maltol/iron molar ratio): 30.0 n mole | time course of uptake (rat jejunal sac; jejunal sac, up to 90 minutes): linear for a period 90 minutes | Relative iron uptake, 15 minutes (rat jejunal sac): 40 | Relative iron uptake, 60 minutes (rat jejunal sac): 5.8 | ability to bind to BSA [7]: little ability to bind to BSA | Distribution ratio (concentration in erythrocytes/concentration in medium) (human erythrocytes; 3 mM): 1.60 | loss of iron in the urine ([2]; daily urine samples over 3 days): essentially zero loss of iron | level of take-up of iron by whole body counting ([2]; 10 mg dose of iron, oral capsule, 14 day figure): 19% | level of take-up of iron by whole body counting ([2]; 20 mg dose of iron, oral capsules, 14 day figure): 11% | thermodynamic stability constant ([4]; 3:1 complex): 30
Compound: Cc1occc(=O)c1[O-].Cc1occc(=O)c1[O-].Cc1occc(=O)c1[O-].[Fe+3] [Fe^III (maltol)3]
binding of the complex to haemoglobin (haemoglobin): no evidence if found for binding | time for uptake to reach equilibrium (human erythrocytes; erythrocytes): about 15 minutes

Net ^59Fe content (cpm/g) ([6]; Heart, i.v.): 209 cpm/g | Net total ^59Fe content (cpm) ([6]; Heart, i.v.): 3,248 cpm | Net ^59Fe content (cpm/g) ([6]; Kidney, i.v.): 1,134 cpm/g | Net total ^59Fe content (cpm) ([6]; Kidney, i.v.): 21,770 cpm | Net ^59Fe content (cpm/g) ([6]; Liver, i.v.): 261 cpm/g | Net total ^59Fe content (cpm) ([6]; Liver, i.v.): 19,600 cpm | Net ^59Fe content (cpm/g) ([6]; Skeletal muscle, i.v.): 95 cpm/g | Net ^59Fe content (cpm/g) ([6]; Spleen, i.v.): 162 cpm/g | Net total ^59Fe content (cpm) ([6]; Spleen, i.v.): 1,814 cpm | Net ^59Fe content (cpm/g) ([6]; Sternum (bone marrow), i.v.): 1,164 cpm/g | Net total ^59Fe content (cpm) ([6]; Urine (19 ml), i.v.): 1,180,900 cpm | Net ^59Fe content (cpm/g) ([6]; Urine (19 ml, 2 ml sample), i.v.): 62,156 cpm/g | rate constant of the elimination from the blood, linear phase of the regression ([6]; i.v.): 0.023 min⁻¹ | dose located in the urine ([6]; i.v., end of experiment): over 50% | levels of 59Fe in the intestine wall and blood ([5]; FIG. 3): extremely low | Net ^59Fe content (cpm/g) ([8]; Heart): 188 cpm/g | Net total ^59Fe content (cpm) ([8]; Heart): 2,878 cpm | Net ^59Fe content (cpm/g) ([8]; Kidney): 1,762 cpm/g | Net total ^59Fe content (cpm) ([8]; Kidney): 19,913 cpm | Net ^59Fe content (cpm/g) ([8]; Liver): 499 cpm/g | Net total ^59Fe content (cpm) ([8]; Liver): 29,574 cpm | Net ^59Fe content (cpm/g) ([8]; Skeletal muscle): 117 cpm/g | Net ^59Fe content (cpm/g) ([8]; Spleen): 200 cpm/g | Net total ^59Fe content (cpm) ([8]; Spleen): 880 cpm | Net ^59Fe content (cpm/g) ([8]; Sternum (bone marrow)): 917 cpm/g | Net ^59Fe content (cpm/g) ([8]; Urine (5 ml sample)): 36,306 cpm/g | Net total ^59Fe content (cpm) ([8]; Urine (15 ml)): 544,596 cpm | plasma levels of radioactivity [9]: hardly exceeded the background level
Compound: O=C([O-])CN(CCN(CC(=O)[O-])CC(=O)O)CC(=O)[O-].[Fe+3] [Fe^III EDTA]

Relative iron uptake, 15 minutes (rat jejunal sac): 4.0 | Relative iron uptake, 60 minutes (rat jejunal sac): 1.8
Compound: O=C([O-])/C=C/C(=O)[O-].[Fe+2] [Fe^II fumarate]

More lines, now with the values behind:

Compound: apotransferrin: iron-free transferrin, reference for log Ksol
log Ksol [1]: 6.0

Compound: O=C([O-])CCC(=O)[O-].[Fe+2] [Fe^II succinate]
Relative iron uptake, 15 minutes (rat jejunal sac): 2.0 | Relative iron uptake, 60 minutes (rat jejunal sac): 1.0

Compound: Cc1occc(=O)c1O [maltol, 3-hydroxy-2-methyl-4-pyrone]
logD [3]: -0.18 | Ksol ([1]; ligand, log Ksol must be greater than 0 to solubilise iron(III) hydroxide): 0.8 | log β3 (affinity for iron) ([4]; ligand maltol, iron): 30

Compound: Fe^III citrate
Relative iron uptake, 15 minutes (rat jejunal sac): 2.0 | Relative iron uptake, 60 minutes (rat jejunal sac): 1.8 | Distribution ratio (concentration in erythrocytes/concentration in medium) (human erythrocytes; 1 mM): 0.05

Compound: Fe^III ascorbate
Relative iron uptake, 15 minutes (rat jejunal sac): 0.4 | Relative iron uptake, 60 minutes (rat jejunal sac): 0.8 | Distribution ratio (concentration in erythrocytes/concentration in medium) (human erythrocytes; 1 mM): 0.12

Compound: [Cl][Fe]([Cl])[Cl] [FeCl3]
Relative iron uptake, 15 minutes (rat jejunal sac): 1 | Relative iron uptake, 60 minutes (rat jejunal sac): 1
